Key:
Type in all cases: cell-based
DU-145 = assay: Inhibition of cell growth by colorimetric SRB assay, DU-145; conditions: Homo sapiens, DU-145, 48 hours exposure; for CC50: cell killing, read-out: LC50 (the source's name); for IC (total growth inhibition): read-out: TGI
From the text: (§1) The finality of these assays is to interrupt the growth of a “in vitro” tumor cell culture by means a continued exhibition of the cells to the sample to be testing.
(§2) Inhibition of Cell Growth by Colorimetric Assay.
(§3) A colorimetric type of assay, using sulforhodamine B (SRB) reaction has been adapted for a quantitative measurement of cell growth and viability (following the technique described by P. A. Skehan, et al., J. Natl. CancerInst. 1990, 82, 1107-1112).
(§4) This form of assay employs 96 well cell culture microplates of 9 mm diameter (T. Mosmann et al., J. of Immuological Methods 1983, 65, 55-63; G. T. Faircloth et al., J. of Tissue and Culture Methods 1988, 11, 201-205). Most of the cell lines are obtained from American Type Culture Collection (ATCC) derived from different human cancer types.
(§5) Cells are maintained in RPMI 1640 10% FBS, supplemented with 0.1 g/L penicillin and 0.1 g/L streptomycin sulfate and then incubated at 37° C., 5% CO2 and 98% humidity. For the experiments, cells were harvested from subconfluent cultures using trypsin and resuspended in fresh medium before plating.
(§6) Cells are seeded in 96 well microtiter plates, at 5×10^3 cells per well in aliquots of 195 μL medium, and they are allowed to attach to the plate surface by growing in drug free medium for 18 hours. Afterward, samples are added in aliquots of 5 μL in a ranging from 10 to 10^−8 μg/mL, dissolved in DMSO/EtOH/PBS (0.5:0.5:99). After 48 hours exposure, the antitumor effect are measured by the SRB methodology: cells are fixed by adding 50 μL of cold 50% (wt/vol) trichloroacetic acid (TCA) and incubated for 60 minutes at 4° C. Plates are washed with deionizer water and dried. One hundred μl of SRB solution (0.4% wt/vol in 1% acetic acid) is added to each microliter well and incubated for 10 minutes at room temperature. Unbound SRB is removed by washing with 1% acetic acid. Plates are air dried and bound stain is solubilized with Tris buffer. Optical densities are read on a automated spectrophotometric plate reader at a single wavelength of 490 nm.
(§7) The values for mean +/−SD of data from triplicate wells are calculated. Some parameters for cellular responses can be calculated: GI=growth inhibition, TGI=total growth inhibition (cytostatic effect) and LC=cell killing (cytotoxic effect).

LNCaP = assay: Inhibition of cell growth by colorimetric SRB assay, LN-caP; conditions: Homo sapiens, LN-caP, 48 hours exposure; for CC50: cell killing, read-out: LC50 (the source's name); for IC (total growth inhibition): read-out: TGI
From the text: as §1, §2, §3, §4, §5, §6, §7

IGROV = assay: Inhibition of cell growth by colorimetric SRB assay, IGROV; conditions: Homo sapiens, 48 hours exposure; for CC50: cell killing, read-out: LC50 (the source's name); for IC (total growth inhibition): read-out: TGI
From the text: as §1, §2, §3, §4, §5, §6, §7

IGROV-ET = assay: Inhibition of cell growth by colorimetric SRB assay, IGROV-ET; conditions: Homo sapiens, IGROV-ET, 48 hours exposure; for CC50: cell killing, read-out: LC50 (the source's name); for IC (total growth inhibition): read-out: TGI
From the text: as §1, §2, §3, §4, §5, §6, §7

SK-MEL-28 = assay: Inhibition of cell growth by colorimetric SRB assay, MEL-28; conditions: Homo sapiens, SK-MEL-28, MEL-28, 48 hours exposure; for CC50: cell killing, read-out: LC50 (the source's name); for IC (total growth inhibition): read-out: TGI
From the text: as §1, §2, §3, §4, §5, §6, §7

A-549 = assay: Inhibition of cell growth by colorimetric SRB assay, A-549; conditions: Homo sapiens, A549, A-549, 48 hours exposure; for CC50: cell killing, read-out: LC50 (the source's name); for IC (total growth inhibition): read-out: TGI
From the text: as §1, §2, §3, §4, §5, §6, §7

K-562 = assay: Inhibition of cell growth by colorimetric SRB assay, K-562; conditions: Homo sapiens, K562, K-562, 48 hours exposure; for CC50: cell killing, read-out: LC50 (the source's name); for IC (total growth inhibition): read-out: TGI
From the text: as §1, §2, §3, §4, §5, §6, §7

PANC-1 = assay: Inhibition of cell growth by colorimetric SRB assay, PANC-1; conditions: Homo sapiens, PANC-1, 48 hours exposure; for CC50: cell killing, read-out: LC50 (the source's name); for IC (total growth inhibition): read-out: TGI
From the text: as §1, §2, §3, §4, §5, §6, §7

HT-29 = assay: Inhibition of cell growth by colorimetric SRB assay, HT-29; conditions: Homo sapiens, HT-29, 48 hours exposure; for CC50: cell killing, read-out: LC50 (the source's name); for IC (total growth inhibition): read-out: TGI
From the text: as §1, §2, §3, §4, §5, §6, §7

LoVo = assay: Inhibition of cell growth by colorimetric SRB assay, LOVO; conditions: Homo sapiens, LOVO, 48 hours exposure; for LC50: cell killing, read-out: LC50; for IC (total growth inhibition): read-out: TGI
From the text: as §1, §2, §3, §4, §5, §6, §7

LoVo-Dox = assay: Inhibition of cell growth by colorimetric SRB assay, LOVO-DOX; conditions: Homo sapiens, LOVO-DOX, 48 hours exposure; for LC50 (concentration for 50% cell killing): read-out: LC50; for IC (total growth inhibition): read-out: TGI
From the text: as §1, §2, §3, §4, §5, §6, §7

HeLa = assay: Inhibition of cell growth by colorimetric SRB assay, HELA; conditions: Homo sapiens, HELA, 48 hours exposure; for CC50: cell killing, read-out: LC50 (the source's name); for IC (total growth inhibition): read-out: TGI
From the text: as §1, §2, §3, §4, §5, §6, §7

HeLa-APL = assay: Inhibition of cell growth by colorimetric SRB assay, HELA-APL; conditions: Homo sapiens; for CC50: HELA-APL, 48 hours exposure, cell killing, read-out: LC50 (the source's name)
From the text: as §1, §2, §3, §4, §5, §6, §7

SK-BR-3 = assay: Inhibition of cell growth by colorimetric SRB assay, SK-BR-3; conditions: SK-BR-3, 48 hours exposure
From the text: as §1, §2, §3, §4, §5, §6, §7

SMILES | GI50 (DU-145) [µM] | CC50 (DU-145) [µM] | IC (total growth inhibition) (DU-145) [µM] | GI50 (IGROV) [µM] | CC50 (IGROV) [µM] | IC (total growth inhibition) (IGROV) [µM] | GI50 (IGROV-ET) [µM] | CC50 (IGROV-ET) [µM] | IC (total growth inhibition) (IGROV-ET) [µM] | GI50 (SK-MEL-28) [µM] | CC50 (SK-MEL-28) [µM] | IC (total growth inhibition) (SK-MEL-28) [µM] | GI50 (A-549) [µM] | CC50 (A-549) [µM] | IC (total growth inhibition) (A-549) [µM] | GI50 (PANC-1) [µM] | CC50 (PANC-1) [µM] | IC (total growth inhibition) (PANC-1) [µM] | GI50 (HT-29) [µM] | CC50 (HT-29) [µM] | further results
C/C=C\[C@H](C)[C@H]1OC1(C)[C@@H](O[Si](C)(C)C(C)(C)C)[C@@H](COC(C)=O)C(=O)[C@H](CO)[C@@H](O)CC(=O)CC (some centres unmarked) [Compound 46] | 9.65 | 18.9 | 18.9 | 7.74 | 18.9 | 18.9 | 7.39 | 18.9 | 18.9 | 9.89 | 18.9 | 18.9 | 13.4 | 18.9 | 18.9 | 7.38 | 18.9 | 18.9 | 15 | 18.9 | GI50 (LNCaP): 5.24 µM; CC50 (LNCaP): 15.6 µM; IC (total growth inhibition) (LNCaP): 9.06 µM; GI50 (K-562): 12 µM; CC50 (K-562): 18.9 µM; IC (total growth inhibition) (K-562): 18.9 µM; IC (total growth inhibition) (HT-29): 18.9 µM; GI50 (LoVo): 4.37 µM; LC50 (LoVo): 18.9 µM; IC (total growth inhibition) (LoVo): 10 µM; GI50 (LoVo-Dox): 6.15 µM; LC50 (concentration for 50% cell killing) (LoVo-Dox): 18.9 µM; IC (total growth inhibition) (LoVo-Dox): 18.9 µM; GI50 (HeLa): 8.81 µM; CC50 (HeLa): 18.9 µM; IC (total growth inhibition) (HeLa): 18.9 µM; GI50 (HeLa-APL; 48 h): 10.1 µM; CC50 (HeLa-APL): 18.9 µM
C/C=C\[C@H](C)[C@H]1OC1(C)[C@@H](O[Si](C)(C)C(C)(C)C)[C@@H](COC(C)=O)C(=O)[C@H](COC(C)=O)[C@@H](CC(=O)CC)OC(C)=O (some centres unmarked) [Compound 45] | 16.3 | 16.3 | 16.3 | 16.3 | 16.3 | 16.3 | 15.8 | 16.3 | 16.3 | 16.3 | 16.3 | 16.3 | 16.3 | 16.3 | 16.3 | 8.24 | 16.3 | 16.3 | 16.3 | 16.3 | GI50 (LNCaP): 8.34 µM; CC50 (LNCaP): 16.3 µM; IC (total growth inhibition) (LNCaP): 16.3 µM; GI50 (K-562): 16.3 µM; CC50 (K-562): 16.3 µM; IC (total growth inhibition) (K-562): 16.3 µM; IC (total growth inhibition) (HT-29): 16.3 µM; GI50 (LoVo): 8.26 µM; LC50 (LoVo): 16.3 µM; IC (total growth inhibition) (LoVo): 16.3 µM; GI50 (LoVo-Dox): 10.5 µM; LC50 (concentration for 50% cell killing) (LoVo-Dox): 16.3 µM; IC (total growth inhibition) (LoVo-Dox): 16.3 µM; GI50 (HeLa): 16.3 µM; CC50 (HeLa): 16.3 µM; IC (total growth inhibition) (HeLa): 16.3 µM; GI50 (HeLa-APL; 48 h): 16.3 µM; CC50 (HeLa-APL): 16.3 µM
C/C=C\[C@H](C)[C@H]1OC1(C)[C@@H](O[Si](C)(C)C(C)(C)C)[C@@H](COC(C)=O)C(=O)[C@H](CO)[C@H](O)CC(=O)CC (some centres unmarked) [Compound 43] | 4.99 | 18.7 | 9.66 | 4.94 | 18.9 | 9.99 | 4.52 | 17.8 | 8.96 | 3.9 | 13.4 | 7.24 | 4.44 | 16.2 | 8.49 | 3.73 | 13.2 | 7.02 | 4.24 | 16.2 | GI50 (LNCaP): 3.78 µM; CC50 (LNCaP): 15.4 µM; IC (total growth inhibition) (LNCaP): 7.62 µM; GI50 (K-562): 3.59 µM; CC50 (K-562): 16.5 µM; IC (total growth inhibition) (K-562): 7.72 µM; IC (total growth inhibition) (HT-29): 8.28 µM; GI50 (LoVo): 4.03 µM; LC50 (LoVo): 18.9 µM; IC (total growth inhibition) (LoVo): 9.06 µM; GI50 (LoVo-Dox): 3.31 µM; LC50 (concentration for 50% cell killing) (LoVo-Dox): 15.7 µM; IC (total growth inhibition) (LoVo-Dox): 7.21 µM; GI50 (HeLa): 4.37 µM; CC50 (HeLa): 16.4 µM; IC (total growth inhibition) (HeLa): 8.47 µM; GI50 (HeLa-APL; 48 h): 4.27 µM; IC (total growth inhibition) (HeLa-APL; 48 h, read-out: TGI): 9.34 µM; CC50 (HeLa-APL): 18.9 µM
C/C=C\[C@H](C)[C@H]1OC1(C)[C@@H](O[Si](C)(C)C(C)(C)C)[C@@H](CO)C(=O)[C@@H](CO)[C@H](O)CC(=O)CC (some centres unmarked) [31b + 31d] | 20.5 | 20.5 | 20.5 | 16.5 | 20.5 | 20.5 | 20.5 | 20.5 | 20.5 | 20.5 | 20.5 | 20.5 | 20.5 | 20.5 | 20.5 | 12.6 | 20.5 | 20.5 | 20.5 | 20.5 | GI50 (SK-BR-3; Homo sapiens): 20.2 µM; CC50 (SK-BR-3; Homo sapiens, cell killing, read-out: LC50 (the source's name)): 20.5 µM; TGI (SK-BR-3; total growth inhibition): 2.05E−05 Molar; IC (total growth inhibition) (HT-29): 20.5 µM; GI50 (LoVo): 20.5 µM; LC50 (LoVo): 20.5 µM; IC (total growth inhibition) (LoVo): 20.5 µM; GI50 (LoVo-Dox): 20.5 µM; LC50 (concentration for 50% cell killing) (LoVo-Dox): 20.5 µM; IC (total growth inhibition) (LoVo-Dox): 20.5 µM; GI50 (HeLa): 20.5 µM; CC50 (HeLa): 20.5 µM; IC (total growth inhibition) (HeLa): 20.5 µM; CC50 (HeLa-APL): 20.5 µM

Source: US7521478B2, “Total synthesis of myriaporones” (Pharma Mar, S.A.U., priority 2002, dated 2009)
